According to US20040248837A1, “Methods of treating pulmonary fibrotic disorders” (priority 2002, published 2004):

Tests used:
ITGβ6 = ITGβ6 (β6 integrin) gene transcription in lung tissue, RT-PCR; assay type: in vivo, C57BL/6 mice; conditions: B6 mice, i.v., 24 hrs; Pam3Cys 25 μg, polyI:C 25 μg, LPS 5 μg, TOG 2 mg, R848 18 μg, ISS 20 μg
Description: Twenty μg ISS was injected intravenously (i.v.) into C57BL/6 mice. At 0 hours, 2 hours, 4 hours, 8 hours, 16 hours, and 24 hours after injection, mice were killed and total RNA was isolated from lung. Transcription levels of IGFβ6 (β6 integrin) was analyzed by reverse transcription-polymerase chain reaction (RT-PCR). TNFα, IDO (2,3-indoleaminedioxygenase) and TGFβ1 were used as controls. […] Transcription of the other subunit of ITGαvβ6 (or αvβ6 integrin), i.e., ITGαv, was also analyzed by RT-PCR.
The long-term effect of ISS on gene expression in lung tissue was investigated. Twenty μg ISS was injected i.v. into C57 BL/6 mice. At 0 days, 1 day, 2 days, 3 days, 4 days, and 5 days post injection, mice were killed and total RNA was isolated from lung tissue. Transcription levels were analyzed by RT-PCR. […] The suppression of TGF-β activity was observed indirectly by the induction of MMP-12 (elastase) gene. Under normal conditions, MMP-12 expression is suppressed by TGF-β. […] In contrast, no change in mRNA levels of MMP-9 (gelatinase) was observed.
The kinetics of suppression of gene expression by ISS was analyzed. […] The level of ITGαv mRNA dropped to 20% of the initial levels within 30 minutes after i.v. injection of ISS.
MyD88 is a component of the TLR signaling pathway. It was shown that down-regulation of ITGβ6 gene transcription by ISS in lung tissue is dependent on MyD88. ISS suppressed ITGβ6 gene transcription in normal control mice, but not in MyD88^−/− mice.
Suppression of ITGβ6 gene transcription in lung tissue by a variety of TLR ligands was examined. Six different TLR ligands (Pam3Cys, 25 μg; polyI:C, 25 μg; LPS, 5 μg; TOG, 2 mg; R848, 18 μg; and ISS, 20 μg) were individually injected i.v. into B6 mice. After 24 hrs, mice were sacrificed and total RNA was isolated form lung tissue, and the level of ITGβ6 gene transcription in lung tissue was analyzed by RT-PCR. Each TLR agonist inhibited ITGβ6 gene transcription in lung tissue.

[1] = system: mice repetitively challenged with OVA; test: Airway responsiveness to MCh in vivo (Penh, whole body plethysmograph); set-up: species or system BALB/c mice; conditions: pilot experiments
Description: Female BALB/c mice (16 mice/group) (The Jackson Laboratory, Bar Harbor, Me.) were used when they reached 8-10 wk of age. Mice were immunized s.c. on days 0, 7, 14, and 21 with 25 μg of OVA (OVA, grade V; Sigma) adsorbed to 1 mg of alum (Aldrich) in 200 μl normal saline. Intranasal OVA challenges (20 ng/50 μl in PBS) were administered on days 27, 29 and 31 under isoflurane (Vedco, Inc. St Joseph, Mo.) anesthesia. Intranasal OVA challenges were then repeated twice a week for 1, 3, or 6 months (see FIG. 1 for protocol). Age and sex matched control mice were sensitized but not challenged with OVA during the 1, 3, or 6 month study. Mice were sacrificed 24 hours after the final OVA challenge and bronchoalveolar lavage fluid and lungs were analyzed. […]
Airway responsiveness was assessed 24 hrs after the final OVA challenge (after 1, 3, or 6 months of repetitive OVA challenges), using a single chamber whole body plethysmograph obtained from Buxco (Troy, N.Y.), as previously described in this laboratory. […] The enhanced pause (Penh) correlates closely with pulmonary resistance measured by conventional two-chamber plethysmography in ventilated mice. […] The Penh values measured during each 3-min sequence were averaged and are expressed for each MCh concentration as the percentage of baseline Penh values following PBS exposure (Broide et al. supra).

[2] = system: mice repetitively challenged with OVA; test: BAL eosinophil counts; assay type: in vivo, BALB/c mice; conditions: pilot experiments
Description: (§1) Female BALB/c mice (16 mice/group) (The Jackson Laboratory, Bar Harbor, Me.) were used when they reached 8-10 wk of age. Mice were immunized s.c. on days 0, 7, 14, and 21 with 25 μg of OVA (OVA, grade V; Sigma) adsorbed to 1 mg of alum (Aldrich) in 200 μl normal saline. Intranasal OVA challenges (20 ng/50 μl in PBS) were administered on days 27, 29 and 31 under isoflurane (Vedco, Inc. St Joseph, Mo.) anesthesia. Intranasal OVA challenges were then repeated twice a week for 1, 3, or 6 months (see FIG. 1 for protocol). Age and sex matched control mice were sensitized but not challenged with OVA during the 1, 3, or 6 month study. Mice were sacrificed 24 hours after the final OVA challenge and bronchoalveolar lavage fluid and lungs were analyzed.
Throughout the Examples, therapeutic nucleic acids are referred to as “ISS.” ISS or diluent control was administered intraperitoneally (i.p.) starting 1 day before the first intranasal OVA challenge on day 26, and then continued every other week 1 day before intranasal challenges for 1, 3, or 6 months (see FIG. 1). All animal experimental protocols were approved by the University of California, San Diego Animal Subjects Committees. […]

[3] = system: mice repetitively challenged with OVA; test: Quantification of airway remodeling (pilot experiments); assay type: in vivo, BALB/c mice
Description: as §1
Different groups of mice (16 mice/group) were administered i.p. endotoxin-free (<1 ng/mg DNA) phosphorothioate ISS-ODN (5′-[…]-3′; SEQ ID NO:01) (Trilink, San Diego, Calif.) (100 μg in 100 μl of sterile, endotoxin-free PBS), M-ODN (5′-[…]-3′; SEQ ID NO:02) which lacks the CpG motif present in ISS, or diluent control starting 1 day before the first intranasal OVA challenge on day 27, and then continuing every other week 1 day before intranasal challenges for 1, 3, or 6 months. […]

[4] = system: mice repetitively challenged with OVA; conditions: previous studies in our laboratory; administered 1 day before OVA challenge; cited from earlier work

| Compound | ITGβ6 gene transcription in lung tissue (ITGβ6) | OVA induced airway responsiveness [1] | OVA induced eosinophilic inflammation [2] | features of airway remodeling [3] | OVA induced airway hyperreactivity [4] |
| --- | --- | --- | --- | --- | --- |
| polyI:C | inhibited |  |  |  |  |
| tripalmitoyl-S-glyceryl cysteine [Pam3Cys] | inhibited |  |  |  |  |
| Nc1nc2c(sc(=O)n2[C@@H]2O[C@H](CO)[C@@H](O)[C@H]2O)c(=O)[nH]1 [TOG, 7-thia-8-oxo-guanosine] | inhibited |  |  |  |  |
| M-ODN: 5′-TGACTGTGAAGGTTGGAGATGA-3′ (SEQ ID NO:02), which lacks the CpG motif present in ISS (DNA, backbone and methylation of C not given here) |  | did not inhibit | did not inhibit | did not inhibit | not |
